Key:
Type in all cases: cell-based
[1] = test system: human PBMCs; experiment: IFNγ secretion by human PBMCs (ELISA); details: two days post-activation
Description: (§1) Isolation of PBMCs from Whole Blood. PBMCs were isolated from whole blood using density gradient centrifugation with Ficoll-Paque PLUS (Cytivia). Whole blood was diluted 1:1 with PBS, layered on top of Ficoll-Paque PLUS and centrifuged at 1000×g for 30 minutes at room temperature. PBMCs were collected, washed twice in PBS, and incubated with Ack lysis buffer (Lonza) to remove any remaining red blood cells.
(§2) Cell Culture and Stimulation. Immediately following isolation, PBMCs were plated in RPMI medium containing 10% FBS, 50 units/mL penicillin, […] streptomycin, 2 mM L-glutamine, 1 mM sodium pyruvate, and […] beta-mercaptoethanol (R10 media). […]
(§3) Endpoint Analyses. […] Half of the media volume in the wells was collected for cytokine quantification by Enzyme-Linked Immunosorbent Assay (ELISA) or Lumit™ Bioluminescent assay, while the remaining media and cells were used to quantify cell viability by assessing metabolic activity.
(§4) Quantification of Cytokine Secretion. IL-1β secretion from human PBMCs was assessed using one of the following kits: ELISA MAX Deluxe Set Human IL-1β kit (Biolegend), Invitrogen Human IL-1β kit, or the Lumit™ Human IL-1β Immunoassay (Promega). IFNγ secretion from human PBMCs was assessed using the ELISA MAX Deluxe Set Human IFNγ (Biolegend) and TNFα secretion from human PBMCs was assessed using the Human TNFα Uncoated ELISA kit (Invitrogen). […]

[2] = test system: canine PBMCs; experiment: IL-1β secretion by canine PBMCs (ELISA); details: two days post-activation, R848 1 μg/mL, 22:0 LYSO PC 82.5 μM, LPS 1 μg/mL, Alum 30 μg/mL
[3] = test system: human PBMCs; experiment: IL-1β secretion by human PBMCs (ELISA or Lumit); details: two days post-activation, R848 1 μg/mL, 22:0 LYSO PC 82.5 μM
Description: as §1, §2, §3, §4

Compound | IFNγ secretion, fold change per donor relative to R848 alone [1] | IL-1β secretion [2] | IL-1β secretion [3]
Nc1nc2c(ncn2[C@@H]2O[C@@H]3COP(=O)(O)O[C@H]4[C@@H](O)[C@H](n5cnc6c(N)ncnc65)O[C@@H]4COP(=O)(O)O[C@@H]2[C@@H]3O)c(=O)[nH]1 [2′3′cGAMP, reference compound] | neither GM-CSF nor 2′3′cGAMP elicited a substantial fold change in IFNγ secretion | neither GM-CSF nor 2′3′cGAMP induced significant IL-1β secretion | –
GM-CSF: human GM-CSF (Peprotech), added at 10 ng/ml | neither GM-CSF nor 2′3′cGAMP elicited a substantial fold change in IFNγ secretion | neither GM-CSF nor 2′3′cGAMP induced significant IL-1β secretion | did not induce levels of IL-1β secretion from human PBMCs significantly above background levels

— patent publication US20250127868A1, “HYPERACTIVATING LIPID NANOPARTICLES” (Corner Therapeutics, Inc., priority 2022, published 2025)
